Measurements: patent publication EP0427747B1, “SUBSTITUTED PHENYLACETONITRILES USED TO OVERCOME RESISTANCE TO DRUGS IN ANTI-MALARIAL THERAPY” (priority 1988, dated 1990)
Where a name gives a salt, the structure may show the parent alone.

Legend:
[1] = in vivo; settings: rat, iv
Excerpt: Das 3. Modell untersucht ebenfalls am Ganztier die Wirkung der Testsubstanz auf das Herz.
(§1) Angegeben ist jeweils, wieviel größer die Dosis der Testsubstanz sein darf als bei racemischem Verapamil, um den gleichen caridovasculären Effekt auszulösen.
(§2) Der Selektivitätsindex S der Tabelle ist das Produkt dieses Faktors mit dem AEI und beschreibt somit, um wieviel schwächer als beim racemischen Verapamil die cardiovasculären Effekte der Testsubstanz sind, wenn sie in der Resistenzbrechnung von Malariamitteln in equieffizienten Dosen eingesetzt werden.

[2] = system: P. yoelii NS; test: Test model II: blood schizontocidal action in infected mice, 4-day treatment; format: in vivo, Plasmodium yoelii ssp; settings: for % Parasitämie: mice, daily dose 10,0 mg/kg test substance plus 0,3 mg/kg Chloroquin, s.c., 4 days, parasitaemia one day after treatment
Excerpt: Zur Bestätigung und weiteren Differenzierung der resistenzbrechenden Wirkung wurden Mäuse nach dem in Ann. Trop. Med. Parasit., 72, 23 (1978) beschriebenen Modell (vgl. auch Exp. Parasitol. 17, 89 (1965), Anm. Trop. Med. Parasit. 69, 155 (1975) mit parasitär befallenden Erythrocyten beimpft und 1 Tag nach der Injektion an vier aufeinanderfolgenden Tagen behandelt. Einen Tag nach der Behandlung wurde die Parasitämie bestimmt.
Eperythozoon-coccoides-freie, männliche, Schweizer Albino-Mäuse, Gewicht zwischen 18 und 20 g, werden für alle Prüfungen benutzt.
Sie werden in Räumen mit kontrollierter Temperatur (22° + 2°C) in Kunststoffkäfigen zu je 5 Mäusen pro Käfig gehalten.
P. yoelii NS, gewonnen aus P. yoelii N: mäßig resistent gegenüber Chloroquin. Erhaltung durch zyklische Passage durch Anopheles stephensi und unter medikamentöser Belastung in der Maus (60 mg/kg s.c. einmal während der Passage) (für nähere Erläuterung siehe Ann. Trop. Med. Parasit., 72, 23 (1978)).
Männliche Mäuse werden intravenös mit parasität befallenden Erythrozyten (10⁷) vom P. yoelli NS Stamm beimpft. Danach werden die Tiere an vier aufeinanderfolgenden Tagen beginnend am Tag der Infektion einmal täglich behandelt. Die Verbindungen werden mit ®Tween 80 in sterilem, destilliertem Wasser gelöst oder suspendiert und subkutan verabreicht. In Fällen, in denen sich die Zubereitung einer wäßrigen Lösung als äußerst schwierig erweist, wird die Prüfsubstanz zunächst in Dimethylsulfoxid gelöst. Danach werden wäßrige Verdünnungen zum Gebrauch hergestellt. Die Parasitämie wird am Tag nach der letzten Behandlung bestimmt. Die unterdrückung der Parasiten im Vergleich zur unbehandelten Kontrolle, wird mittels Probitanalyse der log-Dosis-Wirkungskurve berechnet.
Mäuse, die mit dem chloroquin-resistenten Plasmodium yoelii ssp infiziert waren, wurden mit Chloroquin über 4 Tage subkutan behandelt, wie unter II.2 beschrieben.
Einen Tag nach der Behandlung wurde die Parasitämie bestimmt und mit der Kontrolle verglichen.
Der AEI (Activity Enhancement Index) ist der Quotient aus der ED₉₀ für Chloroquin alleine und der ED₉₀ für Zusatz von 10 mg/kg Testsubstanz.

[3] = in vitro; settings: rat, aortic strip
Excerpt: (§3) Weiter umfaßt die Tabelle drei praxisübliche Testmodelle auf cardiovasculäre Effekte. Am Gefäßstreifen der Ratte (rat aortic strip) (1. Modell) wird die Dosis bestimmt, die zu einer 50 %igen Relaxation führt, sie ist ein Maß für die gefäßerweiternde und damit blutdrucksenkende Wirkung einer Substanz. Das 2. Modell untersucht die blutdrucksenkende Wirkung am Ganztier (Ratte), bei intravenöser Gabe).
as §1, §2

[4] = system: Gefäßstreifen der Ratte (rat aortic strip); test: in vitro
Excerpt: as §3, §1, §2

[5] = in vivo; settings: rat, iv; remark: listed apart in the source
Excerpt: as §3, §1, §2

[6] = system: humanen Erythrocyten, die mit resistenten Plasmodien (Pl. falciparum) infiziert waren; test: Test model I: radiolabelled hypoxanthine incorporation (microdilution technique), alone and in combination with the antimalarial; format: cell-based; settings: combination with Chloroquine; 1,0 = additivity, <0,5 = synergism
Excerpt: Alle Substanzen wurden zunächst alleine und dann in Kombination mit dem Antimalaria-Mittel an humanen Erythrocyten, die mit resistenten Plasmodien (Pl. falciparum) infiziert waren, getestet. Der Einbau von radioaktiv markiertem Hypoxanthin diente als Maß für das Wachstum der Parasiten. Nach der Microdilutions-Technik (Antimicrob. Agents Chemotherapy 16,710 (1979)), wurde dabei für die erfindungsgemäßen Substanzen allein keine oder nur eine geringe Hemmung des Hypoxanthin-Einbaus gefunden. In Kombination mit einem Malariamittel wurde dagegen eine deutlich synergistische Hemmung beobachtet. Die Auswertung erfolgte über den FIC-Index (eine mathematische Repräsentation eines Isobologramms). Der Wert 1,0 bedeutet Additivität der Wirkungen, ein Wert <0,5 Synergismus. Für R-Verapamil und Chloroquin erhält man den Wert 0,56. [formula] IC₅₀ = Konzentration der Prüfsubstanz, die eine 50 %ige Hemmung der Parasiten bewirkt. [A] = gemessene IC₅₀ der Substanzu A in Gegenwart einer definierten (z.B. 500 bis 125 000 ng/ml) Menge der Substanz B. [B] = gemessene IC₅₀ der Substanz B in Gegenwart einer definierten (z.B. 500 bis 125 000 ng/ml) Menge der Substanz A. IC50A = IC₅₀ der Substanz A alleine gegeben IC50B = IC₅₀ der Substanz B alleine gegeben.
Die folgenden Werte wurden in der Kombination mit Chloroquine bestimmt.

[7] = AEI relative to S,R-Verapamil = 1
[8] = Activity Enhancement Index: ED90 of Chloroquin alone divided by ED90 with addition of 10 mg/kg test substance

SMILES	EKG (AV-Block) Ratte i.v. ED [1]	AEI (10 mg/kg) [2, 7]	AEI (10 mg/kg) [2, 8]	selectivity ratio [3]	Ratten Aortenstreifen ED₅₀ [4]	Blutdrucksenkung ED₅₀ [5]	FIC-Index [6]	% Parasitämie [2]	selectivity ratio [5]	selectivity ratio [1]
COc1ccc(CCN(C)CCCC(C#N)(c2ccc(OC)c(OC)c2)C(C)C)cc1OC (racemic) [S,R-Verapamil, Verapamil, reference compound]	= 1	= 1 x	2,56							
COc1ccc(CCN(C)CCCC(C#N)(c2cc(OC)c(OC)c(OC)c2)C(C)C)cc1OC (single isomer, unassigned; (+)) [(+)-Gallopamil, (+)-1-(3,4-Dimethoxyphenyl)-3-methylaza-7-cyan-7-(3,4,5-trimethoxyphenyl)-8-methylnonan-hydrochlorid]	4,6	1,7x	4,4	21.6	12,6	3,4	0,53	8,6%		
CC(C)[C@@](C#N)(CCCN(C)CCc1ccccc1)c1ccccc1 [S-Emopamil, (-)-(S)-1,7-Bis-(phenyl)-3-methylaza-7-cyano-8-methyl-nonan-hydrochlorid]	2,15	1,8x	4,5	13.5	7,7	2,7	0,19	6,7%		
CC(C)C(C#N)(CCCNCCc1ccccc1)c1ccccc1.Cl (stereo not shown) [Noremopamil, 1,7-Bis-(phenyl)-3-aza-7-cyano-8-methyl-nonan-hydrochlorid]	4,6	1,60x	4,1	4.6	2,9	4,3	0,19		6.9	6.9
COc1ccc(CCN(C)CCC[C@](C#N)(c2ccc(OC)c(OC)c2)C(C)C)cc1OC [R-Verapamil, reference compound]	4,6	1,6x	4,15	10.2			0,56	14,2%		
